The text below walks through data of patent US20030022794A1, “Novel quaternary salts and their use in agricultural formulations” (priority 1997, published 2003).

Common to all, as to type: physicochemical
Series [1] can be described thus: solubility in organic solvents (epoxidized soybean oil, methyl caprylate/caprate, cottonseed oil). Here is the method:
(§1) Tetradodecyl ammonium bromide was dissolved in 5 mL of CH2Cl2 and stirred with 3.3 mL of 1 N NaOH. To this was added 1.27 g of N-[[(4,6-dimethoxypyrimidine-2-yl)amino]carbonyl]-1-methyl-4-(2-methyl-2H-tetrazol-5-yl)-H-pyrazole-5-sulfonamide (97.8%) dissolved in 5 mL of CH2Cl2 and stirring continued for 5 min at 25° C. The organic phase was separated, washed with water, dried and the solvent removed tinder vacuum in a rotary evaporator at a maximum of 50° C. The resulting viscous, colorless oil gave an assay of 35% of the corresponding sulfonylurea quaternary salt (vs. 38% theory) using HPLC. This oil was more than-50% soluble in epoxidized soybean oil, methyl caprylate/caprate, and cottonseed oil. 50% solutions of the resultant sulfonylurea quaternary salt in these three solvents were aged 1 week at 54° C., giving 20-45% relative degradation by HPLC analysis.

Series [2] is described as follows: storage stability on aging, decomposition of the sulfonylurea measured by HPLC. Here is the method:
To 21.57 g 2-[[[[(4,6-dimethoxy-2-pyrimidinyl)amino]carbonyl]-amino]sulfonyl]-N,N-dimethyl-3-pyridinecarboxamide and 50 mL 1.0 N NaOH in 1400 mL methylene chloride was incrementally added 22.37 g of diisobutylphenoxy ethoxyethyl dimethylbenzyl ammonium chloride (Hyamine 1622, commercially available from Lonza), with several small methylene chloride washes to facilitate transfer. The reaction medium was filtered through a bed of molecular sieves to remove mineral salts and water. Methylene chloride was stripped to recover the white powder. Upon aging for 1 week at 54 C., 9% relative decomposition of the sulfonylurea resulted as measured by HPLC.
Into 7.8 g of epoxidized soybean oil (ESBO) was added with stirring: 1.18 g methyl 3-[[[[(4-methoxy-6-methyl-1,3,5-triazin-2-yl)amino]carbonyl]amino]sulfonyl]-2-thiophenecarboxylate tech (98.1%), 1.31 g of anhydrous diisobutylphenoxy ethoxyethyl dimethylbenzyl ammonium chloride […] (Hyamine 1622, available from Lonza), 0.11 g Ca(OH)2, and 0.03 g calcium acetate. The mixture was aged 3 weeks at 45° C. giving 0% relative decomposition of the sulfonylurea as measured by HPLC.
A solution on 15 g of methyl 2-[[[[(4-methoxy-6-methyl-1,3,5-triazin-2-yl)methylamino]carbonyl]amino]sulfonyl]benzoate tech (95.7%) and 18 g of Na2CO3 in 300 g of CH2Cl2 was treated with 1.5 g of NaOH and stirred 2 h. 8.65 g of benzyl triethyl ammonium chloride was added to the suspension and the mixture stirred overnight. The suspension was filtered and the filtrate stripped of solvent on a rotary evaporator yielding the corresponding sulfonylurea quaternary salt as a viscous yellow oil (15.7 g) using 1 g of the oil, a 20% solution of the quaternary salt was made in triethyl phosphate. Upon aging for 1 week at 54° C., 1% relative decomposition of the sulfonylurea resulted as indicated by HPLC.
A quaternary salt sulfonylurea was prepared using the procedure of Example 3 with 20 g methyl 2-[[[[(4-methoxy-6-methyl-1,3,5-triazin-2-yl)methylamino]carbonyl]-amino]sulfonyl]benzoate, 30 g Na2CO3, 400 g CH2Cl2, 2 g NaOH and 11.5 g benzyl triethyl ammonium chloride. One gram of the resulting orange viscous oil was made up as a 20% solution in triethyl phosphate. Upon aging for 1 week at 54° C., 2% relative decomposition of the sulfonylurea resulted as indicated by HPLC.
as §1
In a vial was vortexed the following: 0.214 g methyl 2-[[[[[(4,6-dimethoxy-2-pyrimidinyl)amino]carbonyl]amino]sulfonyl]methyl]benzoate (98.3%), 0.192 g of a 25% aqueous solution of tetramethyl ammonium hydroxide, and 4.32 g of water to produce the sulfonylurea quaternary salt. Upon aging the solution at 54° C. for one week, 52% degradation of the sulfonylurea resulted as measured by HPLC.
(§2) Deionized water (5 g) was saturated with 2-[[[[(4,6-dimethoxy-2-pyrimidinyl)amino]carbonyl]amino]sulfonyl]-N,N-dimethyl-3-pyridinencarboxamide tech (500 ppm) and aged at 25° C. for 30 days.

Series [3] in a line: saturation of deionized water. Conditions: tech material. Here is the method: as §2
[4] abbreviates: 20% solution in triethyl phosphate, aging 1 week at 54° C., HPLC.

Compound `CCCCCCCCCCCC[N+](CCCCCCCCCCCC)(CCCCCCCCCCCC)CCCCCCCCCCCC.COc1cc(OC)nc(NC(=O)[N-]S(=O)(=O)c2c(-c3nnn(C)n3)cnn2C)n1` [A] showed a solubility in series [1] of over 50%. The relative degradation in series [2] is 20-45%.
As to `COC(=O)c1ccccc1CS(=O)(=O)[N-]C(=O)Nc1nc(OC)cc(OC)n1.C[N+](C)(C)C` [B], in series [2] (aqueous solution, aging at 54° C. for one week, HPLC), the “degradation of the sulfonylurea” value is recorded as 52%.
`COc1cc(OC)nc(NC(=O)NS(=O)(=O)c2ncccc2C(=O)N(C)C)n1` [C, 2-[[[[(4,6-dimethoxy-2-pyrimidinyl)amino]carbonyl]amino]sulfonyl]-N,N-dimethyl-3-pyridinencarboxamide]: the “concentration at saturation in deionized water” value in series [3] is on record as 500 ppm.
On to `COc1cc(OC)nc(NC(=O)NS(=O)(=O)c2c(-c3nnn(C)n3)cnn2C)n1` [N-[[(4,6-dimethoxypyrimidine-2-yl)amino]carbonyl]-1-methyl-4-(2-methyl-2H-tetrazol-5-yl)-1H-pyrazole-5-sulfonamide], for which, in series [1] (in epoxidized soybean oil, methyl caprylate/caprate, and cottonseed oil), the “solubility (in words)” value is “practically insoluble”.
Take “In situ Quaternary Salt of Methyl 3-[[[[(4-Methoxy-6-Methyl-1,3,5-Triazin-2-yl)Amino]carbonyl]amino]sulfonyl]-2-Thiophenecarboxylate [Example 2]”: the “relative decomposition of the sulfonylurea” value (“relative decomposition” below) in series [2] (in situ mixture in epoxidized soybean oil with Ca(OH)2 and calcium acetate, aged 3 weeks at 45° C., HPLC) came out at 0%.
With “Quaternary Salt of Methyl 2-[[[[(4-Methoxy-6-Methyl-1,3,5-Triazin-0.2-yl)Methylamino]carbonyl]amino]sulfonyl]benzoate [Example 3]”, in series [2] (setting [4]), the “relative decomposition” value was 1%.
Take “Quaternary Salt of Methyl 2-[[[[(4-Methoxy-6-Methyl-1,3,5-Triazin-2-yl)Methylamino]carbonyl]amino]sulfonyl]benzoate [Example 4]”: the “relative decomposition” value in series [2] (setting [4]) is reported as 2%.
Turning to “Quaternary salt of 2-[[[[(4.6-Dimethoxy-2-Pyrimidinyl)amino]carbonyl]amino]sulfonyl]-N,N-Dimethyl-3-Pyridinecarboxamide [Example 1]”, the “relative decomposition” value in series [2] (isolated white powder, aging 1 week at 54 C, HPLC) was 9%.
